Measured values taken from patent publication US20260152468A1, “NOVEL CERAMIDE, PREPARATION METHOD THEREFOR, AND USE THEREOF” (SHENZHEN DIKEMAN BIOTECHNOLOGY CO., LTD., priority 2022, published 2026).

Tests used:
[1] = system: AQP3 (aquaporin 3) expression in HaCat cells; assay: Moisturizing efficacy by AQP3 cell assay; format: cell-based, human; details: 2.5 mmol/L
Procedure: Aquaporin 3 (AQP3) is a transporter factor responsible for transport of water, glycerol and urea on cell membrane, which is mainly expressed in keratinocytes and skin fibroblasts. AQP3 is not only involved in skin hydration and barrier function, but also plays an important role in skin damage, repair and healing, and is an important guarantee for maintenance of normal skin morphology and function.
The HaCat cells were seeded in a 96-well plate at a density of 1×10^4 cells/well and placed in an incubator overnight to allow cell adhesion. After 24 hours of incubation, the supernatant was discarded, and 100 μL of samples (i.e., the product obtained in Example 1) at different concentrations diluted with DMEM medium and DMEM medium free of the samples as a negative control group were added into the plate, each group in triplicate, followed by incubating under an atmosphere of 5% CO2 expressed by mass fraction at 37° C. At 2 hours after administration, […] LPS was added into both lipopolysaccharide model groups and experimental groups and then co-incubated for 24 hours. After completing the reaction, 50 μL of the cell supernatant was taken and detected for the AQP3 gene expression in the cells using a AQP3 assay kit.

[2] = system: interleukin-6 (IL-6) cytokine expression in B16 murine melanoma cells; assay: Anti-inflammatory repair efficacy, LPS-induced cell assay (IL-6 ELISA kit); format: cell-based; details: 1 mmol/L
Procedure: B16 murine melanoma cells were seeded in a 96-well plate at a cell density of 1×10^4 cells/well and placed in an incubator overnight to allow cell adhesion. After 24 hours of incubation, the supernatant was discarded, and 100 μL of samples (i.e., the product obtained in Example 1) at different concentrations diluted with DMEM medium and DMEM culture medium free of the samples as a negative control group were added into the cells, each group in triplicate, followed by incubating under an atmosphere of 5% CO2 expressed by mass fraction at 37° C. At 2 hours after administration, 10 μg/mL LPS was added into both lipopolysaccharide model groups and experimental groups and then co-incubated for 24 hours. After the reaction, 50 μL of the cell supernatant was taken and detected for IL-6 gene expression using a IL-6 ELISA kit.

[3] = system: human keratinocytes (HaCaT) cells; assay: Cell proliferation and viability by MTT assay; format: cell-based
Procedure: Cell proliferation and viability as detected by methylthiazolyldiphenyl-tetrazoliun bromide (MTT) assay: human keratinocytes (HaCaT) cells were seed in a 96-well plate at a cell density of 1×10^4 cells/well and placed in an incubator overnight. After 24 hours of incubation, the supernatant was discarded and 100 μL of culture medium containing samples (i.e., the product obtained in Example 1) at different concentrations or blank control (culture medium only) was added into the cells, and incubated for additional 24 hours, followed by removing the culture medium, adding 100 μL of MTT to each well, measuring the absorbance at 450 nm, and calculating the cell viability as: Cell viability=Adosing/Ablank×100%.

Substance	increase of expression level of AQP3, comparison (FIG. 8) [1]	inhibition of expression of IL-6 inflammatory factors, comparison (FIG. 5) [2]	abilities of cell healing and tissue-repairing (cell proliferation and viability assay, FIGS. 1-3) [3]
ceramide 3	effectively increase the expression level of AQP3	effectively inhibit the expression of IL-6 inflammatory factors	
ceramide 3B	effectively increase the expression level of AQP3	effectively inhibit the expression of IL-6 inflammatory factors	relatively good abilities of cell healing and tissue-repairing
